Source: paper PMC6254837, “Investigating Biological Activity Spectrum for Novel Styrylquinazoline Analogues” (Molecules, 2009)
Values after ≈ are worked out from the molar mass of the structure shown. Values joined by “and” are separate entries in the source; they are usually repeats but may differ in a detail not shown here. Equal values may be shown once. Read-outs that look alike come from different tables or passages of the source.

Experiments:
M. smegmatis MC2155 = experiment: In vitro antimycobacterial evaluation (alamarBlue, 96 well plate); format: cell-based; details: Mycolicibacterium smegmatis
M. kansasii CIT11/06 = experiment: as above; format: cell-based; details: Mycobacterium kansasii, CIT11/06, 120 h, read-out: MIC/IC90 M. kansasii
[1] = Lipophilicity HPLC determination (capacity factor k / calculated log k); format: physicochemical; details: RP-HPLC, C18, MeOH/H2O 55:45, non-buffered, isocratic
From the text: Some groups have used a C18 chromatographic column with methanol-water mobile phases to obtain log kw, i.e., the retention factor extrapolated to 0% organic modifier, as an alternative to log P [50]. The log kw is obtained by performing several measurements with various ratios of water/organic solvent. Nevertheless determination of log kw has some disadvantages in that it is time consuming due to the various measurements that need to be undertaken before calculation of log kw. The main reason for the measurement is that it is more convenient to perform a systematic study of log k of various heteroaromatic compounds using mobile phases containing around 50% methanol due to various intramolecular interactions between heteroatoms and substituents. Therefore this study was performed using methanol/water (55:45) as the mobile phase. The conditions (non-buffered mobile phase) were chosen with respect to conditions of biological evaluations, which are performed mostly under neutral conditions (pH ~ 7). The lipophilicity data can be strongly influenced by intramolecular interactions under the applied chromatographic conditions which were investigated in the paper. The HPLC separation module Waters Alliance 2695 XE and Waters Photodiode Array Detector 2996 (Waters Corp., Milford, MA, U.S.A.) were used. The chromatographic column Symmetry® C18 5 μm, 4.6 × 250 mm, Part No. WAT054275, (Waters Corp., Milford, MA, U.S.A.) was used. The HPLC separation process was monitored by Millennium32® Chromatography Manager Software, Waters 2004 (Waters Corp.). The mixture of MeOH p.a. (55.0%) and H2O-HPLC – Mili-Q Grade (45.0%) was used as a mobile phase. The total flow of the column was 0.9 mL/min, injection 30 μL, column temperature 30 °C and sample temperature 10 °C. The detection wavelength 210 nm was chosen. The KI methanolic solution was used for the dead time (tD) determination. Retention times (tR) were measured in minutes. The capacity factors k were calculated using the Millennium32® Chromatography Manager Software according to formula k = (tR - tD)/tD, where tR is the retention time of the solute, whereas tD denotes the dead time obtained via an unretained analyte.

M. absessus CIT21/06 = experiment: In vitro antimycobacterial evaluation (alamarBlue, 96 well plate); format: cell-based; details: read-out: MIC/IC90 M. absessus
[2] = test system: Mycobacterium avium complex CIT19/06; experiment: as above; format: cell-based; details: 120 h, read-out: MIC/IC90 M. avium complex
[3] = test system: photosynthetic electron transport (PET) in spinach chloroplasts; experiment: Inhibition of photosynthetic electron transport (PET) in spinach chloroplasts, DCPIP photoreduction; format: biochemical, Spinacia oleracea L.; details: phosphate buffer pH 7.2, DMSO up to 4%
Protocol: Chloroplasts were prepared from spinach (Spinacia oleracea L.) according to Masarovicova and Kralova. The inhibition of photosynthetic electron transport (PET) in spinach chloroplasts was determined spectrophotometrically (Genesys 6, Thermo Scientific, U.S.A.) using an artificial electron acceptor 2,6-dichlorophenol-indophenol (DCIPP) according to Kralova et al. and the rate of photosynthetic electron transport was monitored as a photoreduction of DCPIP. The measurements were carried out in phosphate buffer (0.02 mol/L, pH 7.2) containing sucrose (0.4 mol/L), MgCl2 (0.005 mol/L) and NaCl (0.015 mol/L). The chlorophyll content was 30 mg/L in these experiments and the samples were irradiated (~100 W/m^2) from 10 cm distance with a halogen lamp (250 W) using a 4 cm water filter to prevent warming of the samples (suspension temperature 22 °C). The studied compounds were dissolved in DMSO due to their limited water solubility. […] The inhibitory efficiency of the studied compounds was expressed by IC50 values, i.e. by molar concentration of the compounds causing 50% decrease in the oxygen evolution rate relative to the untreated control.

[4] = test system: photosynthetic electron transport (PET) in spinach chloroplasts; set-up: method as in earlier work; details: standard, read-out: PET inhibition IC50; cited from earlier work
[5] = MC2155, Middlebrook broth, 37 °C overnight, read-out: MIC/IC90 M. smegmatis
[6] = Middlebrook broth, 37 °C five days
[7] = Middlebrook broth, 37 °C overnight

SMILES | MIC (M. smegmatis MC2155; [5]) | MIC (M. kansasii CIT11/06; [6]) | log k [1] | MIC (M. absessus CIT21/06; [7]) | MIC [2, 6] | IC50 [3] | IC50 [4] | MIC (M. smegmatis MC2155; MC2155, read-out: MIC/IC90 M. smegmatis) | MIC (M. kansasii CIT11/06) | MIC (M. absessus CIT21/06) | MIC [2]
O=c1[nH]c(/C=C/c2ccccc2Br)nc2ccccc12 [Compound 3g, 2-[(E)-2-(2-Bromophenyl)vinyl]quinazolin-4(3H)-one] | > 100 µg/mL | > 100 µg/mL | 1.4830 | > 100 µg/mL | > 100 µg/mL |  |  |  |  |  | 
O=c1[nH]c(/C=C/c2cccc(Br)c2)nc2ccccc12 [Compound 3h, 2-[(E)-2-(3-Bromophenyl)vinyl]quinazolin-4(3H)-one] | > 100 µg/mL | > 100 µg/mL | 1.5904 | > 100 µg/mL | > 100 µg/mL | 561 µM |  |  |  |  | 
O=Cc1ccc(/C=C/c2nc3ccccc3c(=O)[nH]2)cc1 [Compound 3j, 2-[(E)-2-(4-Carbaldehydephenyl)vinyl]quinazolin-4(3H)-one] |  |  | 0.8005 |  |  |  |  |  |  |  | 
COc1ccc(/C=C/c2nc3ccccc3c(=O)[nH]2)cc1 [Compound 3d, 2-[(E)-2-(4-Methoxyphenyl)vinyl]quinazolin-4(3H)-one] | > 100 µg/mL | > 100 µg/mL | 1.1351 | > 100 µg/mL | > 100 µg/mL | 693 µM |  |  |  |  | 
COc1ccccc1/C=C/c1nc2ccccc2c(=O)[nH]1 [Compound 3b, 2-[(E)-2-(2-Methoxyphenyl)vinyl]quinazolin-4(3H)-one] | > 100 µg/mL | > 100 µg/mL | 1.1509 | > 100 µg/mL | > 100 µg/mL |  |  |  |  |  | 
O=c1[nH]c(/C=C/c2ccc(O)c(O)c2O)nc2ccccc12 [Compound 3k, 2-[(E)-2-(2,3,4-Trihydroxyphenyl)vinyl]quinazolin-4(3H)-one] |  |  | 0.5510 |  |  |  |  |  |  |  | 
O=c1[nH]c(/C=C/c2cccc(Cl)c2)nc2ccccc12 [Compound 3f, 2-[(E)-2-(3-Chlorophenyl)vinyl]quinazolin-4(3H)-one] | > 300 µg/mL | > 300 µg/mL | 1.5059 | > 300 µg/mL | > 300 µg/mL | 1030 µM |  |  |  |  | 
Cc1nc2ccccc2c(=O)n1CCO [Compound 2, 3-(2-Hydroxyethyl)-2-methylquinazolin-4(3H)-one] | > 300 µg/mL | > 300 µg/mL | 0.7047 | > 300 µg/mL | > 300 µg/mL | 362 µM |  |  |  |  | 
COc1cccc(/C=C/c2nc3ccccc3c(=O)[nH]2)c1 [Compound 3c, 2-[(E)-2-(3-Methoxyphenyl)vinyl]quinazolin-4(3H)-one] | > 100 µg/mL | > 100 µg/mL | 1.1837 | > 100 µg/mL | > 100 µg/mL |  |  |  |  |  | 
NNC(=O)c1ccncc1 [INH, isoniazid, reference compound] | 39 µg/mL (≈ 284 µM) | < 10 µg/mL |  | > 100 µg/mL | < 10 µg/mL |  |  |  |  |  | 
CN(C)C(=O)Nc1ccc(Cl)c(Cl)c1 [DCMU, 3-(3,4-dichlorophenyl)-1,1-dimethylurea] |  |  |  |  |  |  | ~1.9 µM and 1.9 µM |  |  |  | 
Cc1nc2ccccc2c(=O)[nH]1 [Compound 1, 2-Methylquinazolin-4(3H)-one] |  |  | 0.1170 |  |  |  |  | > 300 µg/mL | > 300 µg/mL | > 300 µg/mL | > 300 µg/mL
COc1ccc(/C=C/c2nc3ccccc3c(=O)[nH]2)c(OC)c1 [Compound 3e, 2-[(E)-2-(2,4-Dimethoxyphenyl)vinyl]quinazolin-4(3H)-one] | > 100 µg/mL | 20 µg/mL (≈ 64.9 µM) | 1.1982 | 80 µg/mL (≈ 259 µM) | 80 µg/mL (≈ 259 µM) | 391 µM |  |  |  |  | 
O=c1[nH]c(/C=C/c2ccc(Br)cc2)nc2ccccc12 [Compound 3i, 2-[(E)-2-(4-Bromophenyl)vinyl]quinazolin-4(3H)-one] | > 100 µg/mL | > 100 µg/mL | 1.5927 | > 100 µg/mL | > 100 µg/mL | 665 µM |  |  |  |  | 
O=c1[nH]c(/C=C/c2ccccc2)nc2ccccc12 [Compound 3a, 2-(E)-Styrylquinazolin-4(3H)-one] | > 300 µg/mL | > 300 µg/mL | 1.1148 | > 300 µg/mL | > 300 µg/mL |  |  |  |  |  | 

More lines, main results first:

MIC (M. smegmatis MC2155; [5]) | MIC (M. kansasii CIT11/06; [6]) | log k [1] | MIC (M. absessus CIT21/06; [7]) | MIC [2, 6] | IC50 [3] | SMILES | IC50 [4] | MIC (M. smegmatis MC2155; MC2155, read-out: MIC/IC90 M. smegmatis) | MIC (M. kansasii CIT11/06) | MIC (M. absessus CIT21/06) | MIC [2]
> 100 µg/mL | > 100 µg/mL | 1.1337 | > 100 µg/mL | > 100 µg/mL | 390 µM | COc1ccc(/C=C/c2nc(Cl)c3ccccc3n2)cc1 [Compound 4d, 4-Chloro-2-[(E)-2-(4-methoxyphenyl)vinyl]quinazoline] |  |  |  |  | 
> 100 µg/mL | 60 µg/mL (≈ 202 µM) | 1.1827 | > 100 µg/mL | > 100 µg/mL | 303 µM | COc1cccc(/C=C/c2nc(Cl)c3ccccc3n2)c1 [Compound 4c, 4-Chloro-2-[(E)-2-(3-methoxyphenyl)vinyl]quinazoline] |  |  |  |  | 
> 100 µg/mL | 60 µg/mL (≈ 202 µM) | 1.1497 | 80 µg/mL (≈ 270 µM) | 80 µg/mL (≈ 270 µM) |  | COc1ccccc1/C=C/c1nc(Cl)c2ccccc2n1 [Compound 4b, 4-Chloro-2-[(E)-2-(2-methoxyphenyl)vinyl]quinazoline] |  |  |  |  | 
> 100 µg/mL | > 100 µg/mL | 1.1088 | > 100 µg/mL | > 100 µg/mL | 285 µM | Clc1nc(/C=C/c2ccccc2)nc2ccccc12 [Compound 4a, 4-Chloro-2-(E)-styrylquinazoline] |  |  |  |  | 
> 100 µg/mL | > 100 µg/mL | 1.1953 | > 100 µg/mL | > 100 µg/mL | 508 µM | COc1ccc(/C=C/c2nc(Cl)c3ccccc3n2)c(OC)c1 [Compound 4e, 4-Chloro-2-[(E)-2-(2,4-dimethoxyphenyl)vinyl]quinazoline] |  |  |  |  | 
